This is an account of results in US8097624B2, “Cycloalkyl derivatives of 3-hydroxy-4-pyridinones” (Apotex Inc., priority 2006, dated 2012).

Each structure is given as a SMILES string. Several values for one entry are separate records, joined by “and”; a condition that tells them apart may be missing. Equal entries are not always repeated.

Data set [1] in a line: Distribution coefficient determination (D7.4), 1-octanol / MOPS buffer. Format: physicochemical. As to conditions: 1-octanol / MOPS buffer pH 7.4. Here is the method:
MOPS buffer (50 mM, pH=7.4) and 1-octanol were used as the aqueous phase and the organic phase, respectively, for distribution coefficient determinations. The MOPS buffer and 1-octanol were pre-saturated with each other before use.
In a typical experiment, an organic stock solution of Apo6618 (1-cyclopropyl-3-hydroxy-6-methyl-4-oxo-1,4-dihydro-pyridine-2-carboxylic acid cyclopropylamide) was prepared by weighing out 0.50 mg of the compound into a 10-mL volumetric flask and bringing to volume with 1-octanol. The solution was then sonicated for 60 minutes so that the sample could dissolve completely. The concentration of the stock solution was calculated as C^0org=2.0×10^−4 M. The organic standard solution of Apo6618 with 2.0×10^−5 M was prepared in a 10-mL volumetric flask by 10 times dilution of the stock solution with 1-octanol. The sample solution was prepared in a 10-mL volumetric flask. The stock sample solution (3 ml) was pipetted into the flask followed by the addition of MOPS buffer (3 ml). The standard and sample solutions were then vortexed for 2 hours. After vortexing, the solutions were transferred to test tubes and centrifuged at 4000 rpm for 15 minutes. UV-Vis spectra were recorded for the standard solution and the organic (top) phase of the sample solution at 22° C. The distribution coefficient, D7.4, was calculated using the following equation: D7.4=[Aorg/(C^0orgεorg−Aorg)]×(Vaqu/Vorg)
Where εorg=the molar extinction coefficient of the peak wavelength (λmax) obtained from the UV-Vis spectrum of the organic standard solution; Aorg=absorbance of the organic phase in the sample solution at the same λmax; C^0org=the concentration of the stock solution; Vaqu=the volume of MOPS buffer in the sample solution; Vorg=the volume of the stock solution in the sample solution.

For data set [2], the system named is Iron Overloaded Rats. Description: Second rat study: urinary and fecal iron excretion at 28, 113 and 450 μmoles/kg. It counts as in vivo. Particulars: n=6/group, mean ± 1SD. As for the experimental part: A second study was conducted to confirm the efficacy results of Apo6619 and Apo6617 observed in the above study and to further characterize the efficacy of these compounds at doses lower than 450 μmol/kg. The study was conducted in two separate groups of iron overloaded rats. The method of iron overloading, preparation of dosing solutions and assessment of efficacy in these rats was similar to that described in the above study.
The first group of rats (n=6) were treated with Apo6619 consecutively at doses of 28, 113 and 450 μmoles/kg. Similarly, the second group of rats (also n=6) was treated with Apo6617 at these same three doses. Similar to the previous study, both Apo6619 and Apo6617 produced an increase in urinary iron excretion at the 450 μmoles/kg dose (Apo6619: 11±3 at baseline to 335±76 1-day post-Apo6619, p=0.0001; Apo6617: 14±4 at baseline to 183±20 1-day post-Apo6617, p=0.0003). […] At 28 μmoles/kg, only Apo6617 produced an increase in iron excretion (p=0.01) above baseline. However, the magnitude of the increased excretion was small for both Apo6619 and Apo6617.

Data set [3] is described as follows: pKa determination by potentiometric or spectrophotometric titration. It counts as physicochemical. Particulars: titration in 0.1 M NaCl at 22° C. As for the experimental part:
The pKa values of ligands were determined by potentiometric titration when a ligand concentration greater than 1×10^−2 M in water could be prepared. In a typical experiment, the sample solution (2.67×10^−2 M) was prepared by the following method: Apo6619 (92.6 mg) was weighed into a 25-ml beaker, followed by the addition of 0.1 M NaCl (15 ml). The mixture was sonicated for 10 minutes to give a clear colorless solution. Nitrogen gas was then allowed to bubble through the solution. 1.000 N Hydrochloric acid (624 μl, 1.5 equivalent) was added to the solution to give pH 1.88. The solution was allowed to equilibrate at 22° C. for 60 minutes.
The solution was then titrated against 1.000 N NaOH at 22° C. to reach pH 11.8. For each addition of base, the solution was allowed to equilibrate until a constant pH reading was reached. The volume of the base added and the pH reading were recorded for each measurement. 137 measurements were taken to finish the experiment.
The data set of pH vs. base volume was analyzed using Hyperquad 2000 (Version 2.1, Peter Gans, University of Leeds).
The pKa values of ligands can be determined by spectrophotometric titration when both the conjugated acid and base absorb in the UV-Visible region. In a typical experiment, the sample solution was prepared by the following method: Apo6617 (0.792 mg) was weighed into an 80-ml beaker, followed by the addition of 0.1 M NaCl (50 ml). The mixture was sonicated for 5 minutes to give a clear colorless solution. Nitrogen gas was allowed to bubble through the solution. 1.000 N NaOH (50 μl) was added to give pH 10.9. The solution was allowed to equilibrate at 22° C. for 1 hour. A sipper system was used for the circulation of the sample solution between the beaker and the flow cell.
The sample solution was titrated against standard hydrochloric acid solutions at 22° C. to reach pH 1.40. After each addition of acid the solution was allowed to equilibrate until a constant pH reading was reached. The pH and the UV-Vis spectrum were recorded for each measurement. The peak wavelengths of the deprotonated species (L^−), the neutral species (LH), and the protonated species (LH2^+) were 314 nm, 281 nm, and 249 nm, respectively. In the region of pH>6, after each addition of acid there was a slight decrease in the absorbance at 314 nm and a slight increase at 281 nm in each spectrum, whereas in the region of pH<5, after each addition of acid there was a slight decrease in the absorbance at 281 nm and a slight increase at 249 nm in each spectrum. The solution was titrated until there was no obvious change in the spectra after several subsequent additions of acid. 116 measurements were taken to finish the experiment.
The resulting data set was then analyzed using pHAB (Peter Gans, University of Leeds).

For the compound `Cc1cc(=O)c(O)c(C(=O)NC2CC2)n1C` [Apo6617, 3-Hydroxy-1,6-dimethyl-4-oxo-1,4-dihydro-pyridine-2-carboxylic Acid Cyclopropylamide], the D7.4 in data set [1] was found to be 0.099. In addition, the “Iron excretion, Urine (1 day post-chelator)” value (“Iron excretion, Urine” below) in data set [2] (28 μmol/kg) amounted to 24 ± 6 µg/day/kg. Further, in data set [2] (113 μmol/kg), the “Iron excretion, Feces (3 days)” value worked out at 2411 ± 335 µg/day/kg and the “Iron excretion, Urine” value came to 28 ± 8 µg/day/kg. Further, in data set [2] (450 μmol/kg), the “Iron excretion, Feces (3 days)” value was 3228 ± 437 µg/day/kg and the “Iron excretion, Urine” value is 183 ± 20 µg/day/kg. In data set [3], the “pKas (higher value, phenolic C3 OH)” value is 8.6 and 8.5; the “pKas (lower value, LH2+)” value is 2.5 and 2.4.
For the compound `CNC(=O)c1c(O)c(=O)cc(C)n1C1CC1` [Apo6619, 1-Cyclopropyl-3-hydroxy-6-methyl-4-oxo-1,4-dihydro-pyridine-2-carboxylic Acid Methylamide], in data set [1], the D7.4 is reported as 0.109. Also, the “Iron excretion, Urine” value was 14 ± 4 µg/day/kg in data set [2] (28 μmol/kg); 51 ± 15*τ μg/day/kg in data set [2] (113 μmol/kg); 335±76 μg/day/kg and 335 ± 76*τ μg/day/kg in data set [2] (450 μmol/kg). The “Iron excretion, Feces (3 days)” value in data set [2] (113 μmol/kg) came to 3033 ± 1076 µg/day/kg; in data set [2] (450 μmol/kg), 3831 ± 790 µg/day/kg.
Turning to `Cc1c(O)c(=O)ccn1C` [deferiprone, 1,2-dimethyl-3-hydroxy-4-pyridinone, reference compound], in data set [3], the “pKas (higher value, phenolic C3 OH)” value is given as 9.64 and the “pKas (lower value, LH2+)” value was 3.56.
